Laboratory results: EP4745134A1 (Jiangsu Yahong Meditech Co., Ltd., priority 2023, dated 2025)
Where two headings read alike, the source gives them in different places.

Target: PRMT5-MTA (Homo sapiens, UniProt O14744)
Test: Enzymatic inhibitory activity against PRMT5-MTA (AlphaScreen)
Type: biochemical
Description: The AlphaScreen method was used to detect the enzymatic inhibitory activity of the compounds against PRMT5-MTA. 1 x Methyltransferase assay buffer IV (signalchem) was prepared as a solution for diluting each component for the enzymatic reaction. PRMT5/[…] protein of a final concentration of 1 nM, […] (sigma) of a final concentration of 1 uM and S-(5'-adenosine)-L-methionine chloride dihydrochloride (sigma) of a final concentration of 2.5 uM were mixed, then incubated for 30 minutes at room temperature, and transferred to an OptiPlate-384 well plate (PerkinElmer) at a volume of 6 uL per well, for which no PRMT5/[…] protein was added to the control wells. The test compound was 3-fold serially diluted into 10 concentrations, starting from a concentration of 1000 nM, and the series of diluted compounds were added to all wells except the control wells in the well plate using Tecan D300e. The well plate was subjected to centrifugation for 1 minute at 1000 rpm in a centrifuge, and then incubated for 15 minutes at 23°C. Histone H4 substrate of a final concentration of 5 nM was added to the well plate at 4 uL per well, centrifuged for 1 minute at 1000 rpm in a centrifuge, then placed in an incubator at 23°C and reacted for 45 minutes. Anti-histone H4 (symmetrical dimethyl R3) antibody (Abcam) was incubated with 50 ug/mL of AlphaScreen Protein A Acceptor beads (PerkinElmer) for 10 minutes at room temperature beforehand, and then added to the well plate at a volume of 10 uL per well. The mixture was reacted for 1 hour at room temperature. 50 Ug/mL of AlphaScreen Streptavidin Donor beads (PerkinElmer) was added at 10 uL per well, and reacted for 1 hour at room temperature. The signal values were detected for the well plate through the Alpha method using an Envision multifunctional microplate-reader, and the IC50 values for inhibition of the compounds on PRMT5/MET50 enzyme activity were calculated in Xlfit 5.0 software. Table 1. IC50 values for inhibition of the compounds on PRMT5+MTA enzyme activity

Sequence of PRMT5-MTA (O14744 whole entry): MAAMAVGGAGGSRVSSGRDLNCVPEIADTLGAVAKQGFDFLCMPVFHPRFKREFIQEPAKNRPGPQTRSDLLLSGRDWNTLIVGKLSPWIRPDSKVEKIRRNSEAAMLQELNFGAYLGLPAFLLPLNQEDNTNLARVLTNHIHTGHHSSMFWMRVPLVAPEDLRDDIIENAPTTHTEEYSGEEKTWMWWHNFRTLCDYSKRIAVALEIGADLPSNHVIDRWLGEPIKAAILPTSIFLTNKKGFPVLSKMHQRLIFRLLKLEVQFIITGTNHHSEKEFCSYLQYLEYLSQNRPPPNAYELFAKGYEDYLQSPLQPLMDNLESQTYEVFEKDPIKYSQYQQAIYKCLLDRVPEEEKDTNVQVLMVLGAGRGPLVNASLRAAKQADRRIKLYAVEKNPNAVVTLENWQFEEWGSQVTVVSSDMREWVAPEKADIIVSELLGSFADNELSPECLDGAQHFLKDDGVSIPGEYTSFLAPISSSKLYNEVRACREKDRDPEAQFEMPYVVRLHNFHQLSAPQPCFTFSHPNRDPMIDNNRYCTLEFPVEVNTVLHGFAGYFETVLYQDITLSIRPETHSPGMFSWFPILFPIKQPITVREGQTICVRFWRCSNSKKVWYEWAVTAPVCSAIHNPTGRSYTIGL
Sequence of PRMT5-MTA (Q9BQA1 whole entry partner): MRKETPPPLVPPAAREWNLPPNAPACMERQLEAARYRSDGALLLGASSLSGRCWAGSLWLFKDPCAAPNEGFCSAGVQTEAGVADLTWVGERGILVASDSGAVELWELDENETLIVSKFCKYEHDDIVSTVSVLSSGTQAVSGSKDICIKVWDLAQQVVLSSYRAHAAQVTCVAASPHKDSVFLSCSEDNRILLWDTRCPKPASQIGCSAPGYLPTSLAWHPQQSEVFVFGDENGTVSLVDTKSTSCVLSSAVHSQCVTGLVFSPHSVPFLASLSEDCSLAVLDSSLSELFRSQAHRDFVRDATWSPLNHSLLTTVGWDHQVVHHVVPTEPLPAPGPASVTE

| SMILES | IC50 (read-out: IC50) [nM] | IC50 [nM] |
| --- | --- | --- |
| Cc1cc2nc(N)c3c(cnn3C)c2cc1C(=O)N(Cc1ccc(C(F)(F)F)cn1)N(C)c1ncccn1 [Example 81, 4-amino-N',3,7-trimethyl-N'-(pyrimidin-2-yl)-N-((5-(trifluoromethyl)pyridin-2-yl)methyl)-3H-pyrazolo[3,4-c]quinoline-8-carbohydrazide] | 5.8 |  |
| Cc1cc2cc(C(=O)N(Cc3ncc(Br)cn3)N(C)c3ncccc3F)ccc2nc1N [Example 89, 2-amino-N-((5-bromopyrimidin-2-yl)methyl)-N'-(3-fluoropyridin-2-yl)-N',3-dimet hylquinoline-6-carbohydrazide] | 2 |  |
| Cc1cc2cc(C(=O)N(Cc3ccc(C(F)(F)F)cn3)N(C)c3ncc(S(C)(=O)=O)cn3)ccc2nc1N [Example 96, 2-amino-N',3-dimethyl-N'-(5-(methylsulfonyl)pyrimidin-2-yl)-N-((5-(trifluoromethyl)pyridin-2-yl)methyl)quinoline-6-carbohydrazide] | 2.6 |  |
| Cc1cc2cc(C(=O)N(Cc3ccc(C(F)(F)F)cn3)N(CC(F)(F)F)c3ncccn3)ccc2nc1N [Example 98, 2-amino-3-methyl-N'-(pyrimidin-2-yl)-N' -(2,2,2-trifluoroethyl)-N-((5-(trifluoromethyl)pyridin-2-yl)methyl)quinoline-6-carbohydrazide] | 17.2 |  |
| Cc1cc2cc(C(=O)N(Cc3cccc(C(F)(F)F)n3)N(C)c3ncccn3)ccc2nc1N [Example 103, 2-amino-N',3-dimethyl-N'-(pyrimidin-2-yl)-N-((6-(trifluoromethyl)pyridin-2-yl)methyl)quinoline-6-carbohydrazide] | 2.9 |  |
| Cc1cc2cc(C(=O)N(Cc3ccc(C(F)(F)F)cn3)N(C)c3ncccc3Br)ccc2nc1N [Example 106, 2-amino-N'-(3-bromopyridin-2-yl)-N',3-d imethyl-N-((5-(trifluoromethyl)pyridin-2-yl)methyl)quinoline-6-carbohydrazide] | 1.9 |  |
| CCN(C(=O)c1ccc2nc(N)c3c(c2c1)COC3)N(C)c1ccc(C(F)(F)F)cc1 [Example 115, 4-amino-N-ethyl-N-methyl-N-(4-(trifluoromethyl)phenyl)-1,3-dihydrofuro[3,4-c]quinoline-8-carbohydrazide] | 2 |  |
| Cc1cc2cc(C(=O)N(Cc3ccc(C(F)(F)F)cn3)n3c(=O)n(C)c4cccnc43)ccc2nc1N [Example 118, 2-amino-3-methyl-N-(1-methyl-2-oxo-1,2-dihydro-3H-imidazo[4,5-b]pyridin-3-yl)-N-((5-(trifluoromethyl)pyridin-2-yl)methyl)quinoline-6-carboxamide] | 2.3 |  |
| CCc1cccnc1N(C)N(Cc1ccc(C(F)(F)F)cn1)C(=O)c1ccc2nc(N)c(C)cc2c1 [Example 134, 2-amino-N'-(3-ethylpyridin-2-yl)-N',3-dimethyl-N-((5-(trifluoromethyl)pyridin-2-yl)methyl)quinoline-6-carbohydrazide] | 2.3 |  |
| Cc1cc2cc(C(=O)N(Cc3ccc(C(F)(F)F)cn3)N(C)c3ncccc3C(C)C)ccc2nc1N [Example 136, 2-amino-N'-(3-isopropylpyridin-2-yl)-N', 3-dimethyl-N-((5-(trifluoromethyl)pyridin-2-yl)methyl)quinoline-6-carbohydrazide] | 3.6 |  |
| Cc1cc2cc(C(=O)N(Cc3ccc(-c4scnc4C)cn3)N(c3nccc4nccnc34)C3CC3)ccc2nc1N [Example 165, 2-amino-N'-cyclopropyl-3-methyl-N-((5-(4-methylthiazol-5-yl)pyridin-2-yl)methy 1)-N'-(pyrido[3,4-b]pyrazin-5-yl)quinoline-6-carbohydrazide] | 3.3 |  |
| Cc1cc2cc(C(=O)N(Cc3ccc(C4CC4)cc3F)N(C)c3nccc4nccnc34)ccc2nc1N [Example 167, 2-amino-N-(4-cyclopropyl-2-fluorobenzy 1)-N',3-dimethyl-N'-(pyrido[3,4-b]pyrazin-5-yl)quinoline-6-carbohydrazide] | 1.3 |  |
| Cc1cc2cc(C(=O)N(Cc3ccc(-c4nn[nH]n4)cn3)N(C)c3ncccn3)ccc2nc1N [Example 245, N-((5-(2H-tetrazol-5-yl)pyridin-2-yl)methyl)-2-amino-N',3-dimethyl-N'-(pyrimidin-2-y 1)quinoline-6-carbohydrazide] | 9.5 |  |
| Cc1cc2cc(C(=O)N(Cc3ccc(-c4cnn(C(F)(F)F)c4)cn3)Nc3ncccn3)ccc2nc1N [Example 249, 2-amino-3-methyl-N'-(pyrimidin-2-yl)-N-((5-(1-(trifluoromethyl)-1H-pyrazol-4-yl)pyridin-2-yl)methyl)quinoline-6-carbohy drazide] | 40 |  |
| Cc1cc2nc(N)c3cnn(C)c3c2cc1C(=O)N(Cc1ccc(-c2scnc2C)cn1)N(c1ncccn1)C1CC1 [Example 251, 4-amino-N'-cyclopropyl-1,7-dimethyl-N-((5-(4-methylthiazol-5-yl)pyridin-2-yl)methyl)-N'-(pyrimidin-2-yl)-1H-pyrazolo[4 ,3-c]quinoline-8-carbohydrazide] | 4.1 |  |
| Cc1ncsc1-c1ccc(CN(C(=O)c2ccc3nc(N)c4cnn(C)c4c3c2)N(c2ncccn2)C2CC2)nc1 [Example 252, 4-amino-N'-cyclopropyl-1-methyl-N-((5-(4-methylthiazol-5-yl)pyridin-2-yl)methyl)-N'-(pyrimidin-2-yl)-1H-pyrazolo[4,3-c] quinoline-8-carbohydrazide] | 4.8 |  |
| Cc1ncsc1-c1ccc(CN(C(=O)c2cc3c(cc2F)nc(N)c2cnn(C)c23)N(c2ncccn2)C2CC2)nc1 [Example 253, 4-amino-N'-cyclopropyl-7-fluoro-1-methyl-N-((5-(4-methylthiazol-5-yl)pyridin-2-yl)methyl)-N'-(pyrimidin-2-yl)-1H-pyraz olo[4,3-c]quinoline-8-carbohydrazide] | 6.1 |  |
| Cc1cc2cc(C(=O)N(Cc3ccc(C4=CCNCC4)cn3)N(C)c3ncccn3)ccc2nc1N [Example 262, 2-amino-N',3-dimethyl-N'-(pyrimidin-2-yl)-N-((1',2',3',6'-tetrahydro-[3,4'-bipyridine]-6-yl)methyl)quinoline-6-carbohydrazide] | 8.6 |  |
| Cc1cc2cc(C(=O)N(Cc3ccc(C(F)(F)F)cn3)N(C)c3ncc(I)cn3)ccc2nc1N [Example 267, 2-amino-N'-(5-iodopyrimidin-2-yl)-N',3-dimethyl-N-((5-(trifluoromethyl)pyridin-2-yl)methyl)quinoline-6-carbohydrazide] | 1.8 |  |
| Cc1cc2nc(N)c3cnn(C)c3c2cc1C(=O)N(C)N1CCCc2cccnc21 [Example 268, 4-amino-N-(3,4-dihydro-1,8-naphthyridin-1(2H)-yl)-N,1,7-trimethyl-1H-pyrazolo[4,3-c]quinoline-8-carboxamide] | 3.5 |  |
| Cc1cc2cc(C(=O)N(Cc3ccc(C(F)(F)F)cn3)N(c3ncccn3)C3CC3)c(F)cc2nc1N [Example 269, 2-amino-N'-cyclopropyl-7-fluoro-3-methyl-N'-(pyrimidin-2-yl)-N-((5-(trifluoromethyl)pyridin-2-yl)methyl)quinoline-6-car bohydrazide] | 5.7 |  |
| Cc1cc2cc(C(=O)N(Cc3ccc(C(F)(F)F)cn3)N(C)c3nccc4cnn(C)c34)ccc2nc1N [Example 275, 2-amino-N',3-dimethyl-N'-(1-methyl-1H-pyrazolo[3,4-c]pyridin-7-yl)-N-((5-(trifluoromethyl)pyridin-2-yl)methyl)quinoline-6-carbohydrazide] | 2.9 |  |
| Cc1cc2nc(N)c3cnn(C)c3c2cc1C(=O)N(C)N1c2ccccc2CC1C (centres unmarked) [Example 280] |  | 4 |
